ChEMBL document CHEMBL1132604, “Hypoxia-selective nitrobenzyloxycarbonyl derivatives of 1,2-bis(methylsulfonyl)-1-(2-chloroethyl)hydrazines” (1999)

Legend:
Assay type in all cases: functional
Mus musculus [1] = experiment: Surviving fraction of compound on BALB/c mice bearing well established intradermal EMT6 solid tumors was measured by intraperitoneal injection without any treatment.
Mus musculus [2] = experiment: Surviving fraction of compound on BALB/c mice bearing well established intradermal EMT6 solid tumors was measured by intraperitoneal injection on treatment with drug.
Mus musculus [3] = experiment: Surviving fraction of compound on BALB/c mice bearing well established intradermal EMT6 solid tumors was measured by intraperitoneal injection on treatment with drug and X-ray.
Mus musculus [4] = experiment: Surviving fraction of compound on BALB/c mice bearing well established intradermal EMT6 solid tumors was measured by intraperitoneal injection on treatment with X-ray.
Mus musculus [5] = experiment: Surviving fraction of compound on BALB/c mice bearing well established intradermal EMT6 solid tumors was measured by intraperitoneal injection on treatment with X-ray alone.
Mus musculus [6] = experiment: Surviving fraction of compound on BALB/c mice bearing well established intradermal EMT6 solid tumors was measured by intraperitoneal injection on treatment with drug alone.

SMILES	Surviving fraction (Mus musculus [1])	Surviving fraction (Mus musculus [2])	Surviving fraction (Mus musculus [3])	Surviving fraction (Mus musculus [4])	Surviving fraction (Mus musculus [5])	Surviving fraction (Mus musculus [6])
CS(=O)(=O)N(CCCl)N(C(=O)OCc1ccc([N+](=O)[O-])cc1)S(C)(=O)=O	1	0.841	0.013	0.043	–	–
COc1cc(COC(=O)N(N(CCCl)S(C)(=O)=O)S(C)(=O)=O)c([N+](=O)[O-])cc1OC	1	–	0.024	–	0.043	0.856
